Target: T1, SghR (Agrobacterium tumefaciens, UniProt A0A2I4PGE9)
T1 sequence (A0A2I4PGE9 1-350): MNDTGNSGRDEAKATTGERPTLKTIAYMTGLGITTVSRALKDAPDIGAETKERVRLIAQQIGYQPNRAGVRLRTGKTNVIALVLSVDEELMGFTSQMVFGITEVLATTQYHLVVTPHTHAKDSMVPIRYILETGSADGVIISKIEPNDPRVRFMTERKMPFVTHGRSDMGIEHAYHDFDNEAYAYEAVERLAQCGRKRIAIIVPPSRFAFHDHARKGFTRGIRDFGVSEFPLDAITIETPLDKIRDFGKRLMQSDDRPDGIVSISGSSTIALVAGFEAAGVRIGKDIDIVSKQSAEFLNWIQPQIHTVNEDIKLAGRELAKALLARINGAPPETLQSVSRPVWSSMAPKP
Experiment: EMSA, dissociation of SghR from biotin-labelled sghA promoter
Assay type: binding
Conditions: sucrose 50 and 500 µM; inducer that releases the repressor from DNA

OC[C@H]1O[C@@](CO)(O[C@H]2O[C@H](CO)[C@@H](O)[C@H](O)[C@H]2O)[C@@H](O)[C@@H]1O [sucrose]
EMSA, dissociation of SghR from biotin-labelled sghA promoter: gel shift analysis demonstrated that sucrose dissociated repressor SghR from the sghA promoter
